Experimental data published in US8822515B2, “Heterocyclic benzoxazole compositions as inhibitors of hepatitis C virus” (University of Maryland, Baltimore County, priority 2009, dated 2014).
Entries after “also recorded” stand apart in the source; their conditions may differ. Like-named read-outs stand apart in the source and are kept apart here.

Columns and labels:
integrase = assay: Integrase test; assay type: biochemical
HCV ATPase = HCV ATPase (Hepatitis C virus genotype 1a, UniProt P27958); assay: ATPase analysis of HCV NTPase/helicase; assay type: biochemical
HCV ATPase, sequence (P27958 1027-1657): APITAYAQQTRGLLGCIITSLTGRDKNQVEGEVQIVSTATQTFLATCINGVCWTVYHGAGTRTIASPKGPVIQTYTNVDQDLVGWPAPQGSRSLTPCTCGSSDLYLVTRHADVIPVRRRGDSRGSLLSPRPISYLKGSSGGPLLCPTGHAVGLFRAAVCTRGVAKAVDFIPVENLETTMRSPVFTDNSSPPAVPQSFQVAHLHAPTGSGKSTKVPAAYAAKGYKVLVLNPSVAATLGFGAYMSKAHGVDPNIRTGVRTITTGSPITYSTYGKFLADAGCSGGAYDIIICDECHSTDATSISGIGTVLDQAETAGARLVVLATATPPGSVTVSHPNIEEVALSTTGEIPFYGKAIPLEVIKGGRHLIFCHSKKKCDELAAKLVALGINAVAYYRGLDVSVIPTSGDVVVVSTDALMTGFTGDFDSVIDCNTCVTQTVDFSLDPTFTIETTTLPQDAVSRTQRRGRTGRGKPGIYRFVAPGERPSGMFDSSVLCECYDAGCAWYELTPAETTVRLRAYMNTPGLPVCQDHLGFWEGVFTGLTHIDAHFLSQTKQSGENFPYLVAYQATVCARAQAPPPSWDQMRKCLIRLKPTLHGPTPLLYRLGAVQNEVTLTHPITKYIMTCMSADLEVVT

[1] = tested on: HCV replicon in Huh7 ET (luc-ubi-neo/ET) cell line; assay: HCV replicon assay (luciferase based), antiviral activity; assay type: cell-based, Hepatitis C Virus; set-up: SI50: unit not given here; settings: for EC50: Hepatitis C virus, Huh7 ET; for SI50: selectivity index, luciferase based replicon assay; for activity against HCV in replicon assay (in words): whole cells
Source text: (§1) To determine if the compounds are active in whole cells, they were screened using an HCV replicon assay. […] Compound 2b also has similar selectivity towards HCV as human interferon alpha-2b (rIFNa-2b), the positive control.
In the replicon assays a Huh7 ET (luc-ubi-neo/ET) cell line is used. This particular construct contain the 5′NTR (IRES) of HCV, producing a firefly luciferase (luc), ubiquitin (ubiq) and neomycin phosphotranferase (neo) fusion protein. This modification makes the cell line more robust and provides the additional stability needed for antiviral screening. […]

HCV NTPase/helicase [2] = molecular target: T1, HCV NTPase/helicase (Hepatitis C virus genotype 1a, UniProt P27958); assay: NTPase/Helicase assay, HCV helicase, RNA substrate; assay type: biochemical
T1 sequence (P27958 1027-1657): as above
Description: NTPase/Helicase activity determined by a previously described method. […] The substrate and released strand were separated in TBE polyacrylamide gel and visualized by exposition of dried gel onto X-ray film for 20 h. The part of the gels corresponding to the released strand were excised, and the ^32P radioactivity was quantified.

[3] = tested on: Huh7 ET (luc-ubi-neo/ET) cell line; assay: HCV replicon assay (luciferase based), cytotoxicity; assay type: cell-based; settings: cytotoxicity in luciferase based replicon assay, high test conc 20 μM (rIFNa-2b 2)
Source text: as §1
In the replicon assays a Huh7 ET (luc-ubi-neo/ET) cell line is used. This particular construct contain the 5′NTR (IRES) of HCV, producing a firefly luciferase (luc), ubiquitin (ubiq) and neomycin phosphotranferase (neo) fusion protein. This modification makes the cell line more robust and provides the additional stability needed for antiviral screening. The effects of the drug were examined in triplicate at a single high-test concentration of 20 μM on HCV RNA-derived LUC activity and cytotoxicity.

HCV NTPase/helicase [4] = molecular target: T1, HCV NTPase/helicase; assay: NTPase/Helicase assay, HCV helicase, DNA substrate; assay type: biochemical; settings: for inhibition of NTPase/helicase of HCV (in words) / IC50: DNA substrate
Description: Inhibitory activity of HCV was measured using a DNA substrate.
NTPase/Helicase activity determined by a previously described method. Helicase activity was determined as a function of increasing concentrations of the compounds in the presence of ATP adjusted to 105 μM, 235 μM, for HCV, JEV, and DENV NTPase/Helicase, respectively and […] of DNA substrate (concentration of nucleotide base). The substrate and released strand were separated in TBE polyacrylamide gel and visualized by exposition of dried gel onto X-ray film for 20 h. The part of the gels corresponding to the released strand were excised, and the ^32P radioactivity was quantified.

[5] = RNA based confirmatory assay, cytotoxicity; assay type: cell-based; settings: cytotoxicity in RNA based confirmatory assay; high test conc 20 μM (rIFNa-2b 2)
HCV = assay: RNA based confirmatory assay, antiviral activity; assay type: cell-based, Hepatitis C Virus; set-up: SI50: unit not given here; settings: for EC50: Hepatitis C virus; for SI50: selectivity index, RNA based confirmatory assay
[6] = HCV Helicase (IC50) RNA, in brackets, molar value in brackets
[7] = HCV Helicase (IC50) DNA, in brackets, molar value in brackets
[8] = read-out: HCV Helicase (IC50) RNA
[9] = read-out: HCV Helicase (IC50) DNA (converted)

## COC(=O)c1cccc2oc(-c3ccc4c(OCc5ccccc5)cccc4c3O)nc12 [Compound 2a, 2-(5-Benzyloxy-1-hydroxy-naphthalene-2-yl)-benzoxazole-4-carboxylic Acid Methyl Ester]
integrase
  activity against integrase: inactive
HCV ATPase
  IC50: > 1180 µM
[1]
  EC50: 1.13 µM
  SI50: >17.7
other
  melting point: 183.5 to 185 °C
HCV NTPase/helicase [2]
  inhibition of HCV helicase with RNA substrate (in words): inhibitory
HCV NTPase/helicase [2]; HCV Helicase (IC50) RNA
  IC50: 20.4 µM
HCV NTPase/helicase [2]; [6]
  IC50: 20 µM
[3]
  IC50: > 20 µM
HCV NTPase/helicase [4]
  inhibition of NTPase/helicase of HCV (in words): inhibit
HCV NTPase/helicase [4]; HCV Helicase (IC50) DNA
  IC50: 3.76 µM
HCV NTPase/helicase [4]; [7]
  IC50: 3.8 µM

## COC(=O)c1cccc2oc(-c3ccc4ccc(OCc5ccccc5)cc4c3O)nc12 [Compound 2b, 2-(7-benzyloxy-1-hydroxy-napthalen-2-yl)-benzoxazole-4 Carboxylic Acid Methyl Ester]
integrase
  activity against integrase: inactive
HCV ATPase
  IC50: > 1180 µM
[1]
  EC50: 0.47 µM
  SI50: >42.6
HCV NTPase/helicase [2]
  inhibition of HCV helicase with RNA substrate (in words): inhibitory
HCV NTPase/helicase [2]; HCV Helicase (IC50) RNA
  IC50: 19.7 µM
HCV NTPase/helicase [2]; [6]
  IC50: 20 µM
[3]
  IC50: > 20 µM
HCV NTPase/helicase [4]
  inhibition of NTPase/helicase of HCV (in words): inhibit
HCV NTPase/helicase [4]; HCV Helicase (IC50) DNA
  IC50: 2.59 µM
HCV NTPase/helicase [4]; [7]
  IC50: 2.6 µM

## O=C(O)c1cccc2oc(-c3ccccc3O)nc12 [Compound 9]
HCV ATPase; read-out: ATPase (IC50)
  IC50: > 1960 µM
[1]
  EC50: 0.21 µM
  SI50: 16.7
  activity against HCV in replicon assay (in words): still active against HCV
HCV NTPase/helicase [2]; [8]
  IC50: > 1960 µM
[3]
  IC50: 3.51 µM
HCV NTPase/helicase [4]
  activity in HCV NTPase/helicase assay (in words): inactive; also recorded: did not show any activity
HCV NTPase/helicase [4]; [9]
  IC50: > 1960 µM

## COC(=O)c1cccc2oc(-c3ccccc3O)nc12 [Compound 8]
HCV ATPase; read-out: ATPase (IC50)
  IC50: > 1860 µM
[1]
  EC50: 0.32 µM
  SI50: 16.2
  activity against HCV in replicon assay (in words): still active against HCV
[5]
  IC50: 5.18 µM
HCV
  EC50: 0.58 µM
  SI50: >8.93
HCV NTPase/helicase [2]; [8]
  IC50: > 1860 µM
[3]
  IC50: 5.2 µM
HCV NTPase/helicase [4]
  activity in HCV NTPase/helicase assay (in words): inactive; also recorded: did not show any activity
HCV NTPase/helicase [4]; [9]
  IC50: > 1860 µM

## COC(=O)c1cccc2oc(-c3ccc4ccccc4c3O)nc12 [Compound 6, 2-(1-Hydroxy-naphthalen-2-yl)benzoxazole-4-carboxylic Acid Methyl Ester]
integrase
  activity against integrase: inactive
HCV ATPase
  IC50: > 1570 µM
[1]
  EC50: 0.21 µM
  SI50: 7.67
[5]
  IC50: 1.68 µM
HCV
  EC50: 1.32 µM
  SI50: >1.27
HCV NTPase/helicase [2]
  inhibition of HCV helicase with RNA substrate (in words): inhibitory
HCV NTPase/helicase [2]; HCV Helicase (IC50) RNA
  IC50: 592 µM
HCV NTPase/helicase [2]; [6]
  IC50: 591 µM
[3]
  IC50: 1.61 µM
HCV NTPase/helicase [4]
  inhibition of NTPase/helicase of HCV (in words): inhibit
HCV NTPase/helicase [4]; HCV Helicase (IC50) DNA
  IC50: 539 µM
HCV NTPase/helicase [4]; [7]
  IC50: 539 µM

## CNC(=O)c1cccc2oc(-c3ccccc3O)nc12 [Compound 10]
HCV ATPase; read-out: ATPase (IC50)
  IC50: > 1860 µM
[1]
  EC50: 1.41 µM
  SI50: 4.5
  activity against HCV in replicon assay (in words): still active against HCV
HCV NTPase/helicase [2]; [8]
  IC50: > 1860 µM
[3]
  IC50: 6.32 µM
HCV NTPase/helicase [4]
  activity in HCV NTPase/helicase assay (in words): inactive; also recorded: did not show any activity
HCV NTPase/helicase [4]; [9]
  IC50: > 1860 µM

## COC(=O)c1cccc2oc(-c3cccc4oc(-c5ccccc5O)nc34)nc12 [Compound 1, UK-1]
HCV ATPase; read-out: ATPase (IC50)
  IC50: > 1290 µM
[1]
  EC50: 0.21 µM
  activity against HCV in replicon assay (in words): still active against HCV
[5]
  IC50: > 20 µM
HCV
  EC50: 0.72 µM
HCV NTPase/helicase [2]; [8]
  IC50: > 1290 µM
[3]
  IC50: 11.6 µM
HCV NTPase/helicase [4]
  activity in HCV NTPase/helicase assay (in words): inactive; also recorded: did not show any activity
  inhibition of NTPase/helicase of HCV (in words): inhibit
HCV NTPase/helicase [4]; [9]
  IC50: 378 µM
